Biological target: unphosphorylated-BTK kinase domain (UP-BTK), GST-tagged human BTK (389-659aa) (Homo sapiens (Human), UniProt Q06187)
Assay: BTK kinase Lanthascreen binding assay
Conditions: unphosphorylated-BTK kinase domain, 50 nM Tracer 236, 60 minutes, pIC50 = negative log of the IC50 in molar; for IC50: read-out: BTK_I_binding pIC50 (converted)
Method in brief: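 A fluorescent tracer is bound to unphosphorylated BTK; test compound is added to compete it off; the Lanthascreen signal is read and IC50 is fitted, then reported as its negative log in molar.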

Chain of unphosphorylated-BTK kinase domain (UP-BTK), GST-tagged human BTK (389-659aa) (Q06187 389-659): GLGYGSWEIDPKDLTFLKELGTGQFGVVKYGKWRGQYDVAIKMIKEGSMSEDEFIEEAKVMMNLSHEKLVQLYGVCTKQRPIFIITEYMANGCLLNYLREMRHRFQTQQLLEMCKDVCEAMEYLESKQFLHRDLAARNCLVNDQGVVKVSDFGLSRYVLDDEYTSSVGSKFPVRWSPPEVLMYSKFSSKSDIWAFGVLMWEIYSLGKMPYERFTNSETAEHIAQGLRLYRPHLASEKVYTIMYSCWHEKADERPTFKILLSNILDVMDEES

Structure (SMILES) | BTK_I_binding pIC50 | IC50
Cc1cc(Oc2ccccc2)ccc1N1C(=O)Nc2c(C(=O)N[C@@H]3CCCN(C(=O)CN4CCOCC4)C3)sc3nccc1c23 [Example 394, (R)-5-(2-Methyl-4-phenoxyphenyl)-N-(1-(2-morpholinoacetyl)piperidin-3-yl)-4-oxo-4,5-dihydro-3H-1-thia-3,5,8-triazaacenaphthylene-2-carboxamide] | 6.8 | –
C=CC(=O)N1CCC[C@@H](NC(=O)c2sc3nccc4c3c2NC(=O)N4c2ccc(-c3cccs3)cc2)C1 [Example 397, (R)—N-(1-Acryloylpiperidin-3-yl)-4-oxo-5-(4-(thiophen-2-yl)phenyl)-4,5-dihydro-3H-1-thia-3,5,8-triazaacenaphthylene-2-carboxamide] | 6.4 | –
CC(C)Oc1ccc(N2C(=O)Nc3c(C(=O)N[C@@H]4CCCNC4)sc4nccc2c34)cc1 [Example 405, (R)-5-(4-Isopropoxyphenyl)-4-oxo-N-(piperidin-3-yl)-4,5-dihydro-3H-1-thia-3,5,8-triazaacenaphthylene-2-carboxamide] | – | 3.16 µM
O=C(N[C@@H]1CCCNC1)c1sc2nccc3c2c1NC(=O)N3c1ccc(-c2cccs2)cc1 [Example 407, (R)-4-Oxo-N-(piperidin-3-yl)-5-(4-(thiophen-2-yl)phenyl)-4,5-dihydro-3H-1-thia-3,5,8-triazaacenaphthylene-2-carboxamide] | 5.1 | –
CN1CC[C@@H](NC(=O)c2sc3nccc4c3c2NC(=O)N4Cc2ccc(Oc3ccccc3)cc2)C1 [Example 409, (R)—N-(1-Methylpyrrolidin-3-yl)-4-oxo-5-(4-phenoxybenzyl)-4,5-dihydro-3H-1-thia-3,5,8-triazaacenaphthylene-2-carboxamide] | 5.0 | –
CN1CCC[C@@H](NC(=O)c2sc3nccc4c3c2NC(=O)N4Cc2ccc(Oc3ccccc3)cc2)C1 [Example 411, (R)—N-(1-Methylpiperidin-3-yl)-4-oxo-5-(4-phenoxybenzyl)-4,5-dihydro-3H-1-thia-3,5,8-triazaacenaphthylene-2-carboxamide] | <5 | –
O=C(N[C@@H]1CCCNC1)c1sc2nccc3c2c1NC(=O)N3Cc1ccc(Oc2ccccc2)cc1 [Example 412, (R)-4-Oxo-5-(4-phenoxybenzyl)-N-(piperidin-3-yl)-4,5-dihydro-3H-1-thia-3,5,8-triazaacenaphthylene-2-carboxamide] | <5 | –
Cc1cc(OC(F)(F)F)ccc1N1C(=O)Nc2c(C(=O)N[C@@H]3CCCNC3)sc3nccc1c23 [Example 413, (R)-5-(2-Methyl-4-(trifluoromethoxy)phenyl)-4-oxo-N-(piperidin-3-yl)-4,5-dihydro-3H-1-thia-3,5,8-triazaacenaphthylene-2-carboxamide] | – | 2.51 µM
C=CC(=O)N1CCC[C@@H](NC(=O)c2sc3nccc4c3c2NC(=O)N4c2ccc(OC(F)(F)F)cc2)C1 [Example 416, (R)—N-(1-Acryloylpiperidin-3-yl)-4-oxo-5-(4-(trifluoromethoxy)phenyl)-4,5-dihydro-3H-1-thia-3,5,8-triazaacenaphthylene-2-carboxamide] | 6.7 | –
C=CC(=O)N1CCC[C@@H](NC(=O)c2sc3nccc4c3c2NC(=O)N4c2ccc3ccccc3c2)C1 [Example 419, (R)—N-(1-Acryloylpiperidin-3-yl)-5-(naphthalen-2-yl)-4-oxo-4,5-dihydro-3H-1-thia-3,5,8-triazaacenaphthylene-2-carboxamide] | 5.7 | –
C=CC(=O)N1CCC[C@@H](NC(=O)c2sc3nccc4c3c2NC(=O)N4c2cccc(-c3ccccc3)c2)C1 [Example 421, (R)-5-([1,1′-Biphenyl]-3-yl)-N-(1-acryloylpiperidin-3-yl)-4-oxo-4,5-dihydro-3H-1-thia-3,5,8-triazaacenaphthylene-2-carboxamide] | 7.9 | –

More lines, now with the values ahead:

BTK_I_binding pIC50 | IC50 | Structure (SMILES)
7.4 | – | Cc1cc(Oc2ccccc2)ccc1N1C(=O)Nc2c(C(=O)N[C@@H]3CCN(C(=O)CN)C3)sc3nccc1c23 [Example 392, (R)—N-(1-(2-Aminoacetyl)pyrrolidin-3-yl)-5-(2-methyl-4-phenoxyphenyl)-4-oxo-4,5-dihydro-3H-1-thia-3,5,8-triazaacenaphthylene-2-carboxamide]
6.8 | – | Cc1cc(Oc2ccccc2)ccc1N1C(=O)Nc2c(C(=O)N[C@@H]3CCCN(C(=O)CN4CCCCC4)C3)sc3nccc1c23 [Example 393, (R)-5-(2-Methyl-4-phenoxyphenyl)-4-oxo-N-(1-(2-(piperidin-1-yl)acetyl)piperidin-3-yl)-4,5-dihydro-3H-1-thia-3,5,8-triazaacenaphthylene-2-carboxamide]
8.0 | – | Cc1cc(Oc2ccccc2)ccc1N1C(=O)Nc2c(C(=O)N[C@@H]3CCN(C(=O)CCl)C3)sc3nccc1c23 [Example 395, (R)—N-(1-(2-Chloroacetyl)pyrrolidin-3-yl)-5-(2-methyl-4-phenoxyphenyl)-4-oxo-4,5-dihydro-3H-1-thia-3,5,8-triazaacenaphthylene-2-carboxamide]
7.8 | – | Cc1cc(Oc2ccccc2)ccc1N1C(=O)Nc2c(C(=O)N[C@@H]3CCCN(C(=O)CCl)C3)sc3nccc1c23 [Example 396, (R)—N-(1-(2-Chloroacetyl)piperidin-3-yl)-5-(2-methyl-4-phenoxyphenyl)-4-oxo-4,5-dihydro-3H-1-thia-3,5,8-triazaacenaphthylene-2-carboxamide]
7.5 | – | CC(C)Oc1ccc(N2C(=O)Nc3c(C(=O)N[C@@H]4CCCN(C(=O)/C(C#N)=C/C5CC5)C4)sc4nccc2c34)cc1 [Example 399, (R,E)-N-(1-(2-Cyano-3-cyclopropylacryloyl)piperidin-3-yl)-5-(4-isopropoxyphenyl)-4-oxo-4,5-dihydro-3H-1-thia-3,5,8-triazaacenaphthylene-2-carboxamide]
6.9 | – | C=CC(=O)N1CCC[C@@H](NC(=O)c2sc3nccc4c3c2NC(=O)N4c2ccc(OC(C)C)cc2)C1 [Example 400, (R)—N-(1-Acryloylpiperidin-3-yl)-5-(4-isopropoxyphenyl)-4-oxo-4,5-dihydro-3H-1-thia-3,5,8-triazaacenaphthylene-2-carboxamide]
6.5 | – | C/C(=C\C1CC1)C(=O)N1CCC[C@@H](NC(=O)c2sc3nccc4c3c2NC(=O)N4c2ccc(Oc3ccccc3)cc2C)C1 [Example 401, (R,E)-N-(1-(3-Cyclopropyl-2-methylacryloyl)piperidin-3-yl)-5-(2-methyl-4-phenoxyphenyl)-4-oxo-4,5-dihydro-3H-1-thia-3,5,8-triazaacenaphthylene-2-carboxamide]
6.4 | – | Cc1cc(Oc2ccccc2)ccc1N1C(=O)Nc2c(C(=O)N[C@@H]3CCCN(C(=O)/C=C/CN4CCOCC4)C3)sc3nccc1c23 [Example 403, (R,E)-5-(2-Methyl-4-phenoxyphenyl)-N-(1-(4-morpholinobut-2-enoyl)piperidin-3-yl)-4-oxo-4,5-dihydro-3H-1-thia-3,5,8-triazaacenaphthylene-2-carboxamide]
6.1 | – | C=CC(=O)N1CCC[C@@H](NC(=O)c2sc3nccc4c3c2NC(=O)N4c2ccc3sccc3c2)C1 [Example 404, (R)—N-(1-Acryloylpiperidin-3-yl)-5-(benzo[b]thiophen-5-yl)-4-oxo-4,5-dihydro-3H-1-thia-3,5,8-triazaacenaphthylene-2-carboxamide]
5.2 | – | CCC(=O)N1CCC[C@@H](NC(=O)c2sc3nccc4c3c2NC(=O)N4c2ccc(OC(C)C)cc2)C1 [Example 406, (R)-5-(4-Isopropoxyphenyl)-4-oxo-N-(1-propionylpiperidin-3-yl)-4,5-dihydro-3H-1-thia-3,5,8-triazaacenaphthylene-2-carboxamide]
5.1 | – | C=CC(=O)N1CCC[C@@H](NC(=O)c2sc3nccc4c3c2NC(=O)N4Cc2ccc(Oc3ccccc3)cc2)C1 [Example 408, (R)—N-(1-Acryloylpiperidin-3-yl)-4-oxo-5-(4-phenoxybenzyl)-4,5-dihydro-3H-1-thia-3,5,8-triazaacenaphthylene-2-carboxamide]
5.0 | – | O=C(N[C@@H]1CCCNC1)c1sc2nccc3c2c1NC(=O)N3c1ccc2sccc2c1 [Example 410, (R)-5-(Benzo[b]thiophen-5-yl)-4-oxo-N-(piperidin-3-yl)-4,5-dihydro-3H-1-thia-3,5,8-triazaacenaphthylene-2-carboxamide]
7.4 | – | C=CC(=O)N1CCC[C@@H](NC(=O)c2sc3nccc4c3c2NC(=O)N4c2ccc(OC(F)(F)F)cc2C)C1 [Example 414, (R)—N-(1-Acryloylpiperidin-3-yl)-5-(2-methyl-4-(trifluoromethoxy)phenyl)-4-oxo-4,5-dihydro-3H-1-thia-3,5,8-triazaacenaphthylene-2-carboxamide]
– | 6.31 µM | O=C(N[C@@H]1CCCNC1)c1sc2nccc3c2c1NC(=O)N3c1ccc(OC(F)(F)F)cc1 [Example 415, (R)-4-Oxo-N-(piperidin-3-yl)-5-(4-(trifluoromethoxy)phenyl)-4,5-dihydro-3H-1-thia-3,5,8-triazaacenaphthylene-2-carboxamide]
6.0 | – | C=CC(=O)N1CCC[C@@H](NC(=O)c2sc3nccc4c3c2NC(=O)N4c2ccn(Cc3ccccc3)n2)C1 [Example 420, (R)—N-(1-Acryloylpiperidin-3-yl)-5-(1-benzyl-1H-pyrazol-3-yl)-4-oxo-4,5-dihydro-3H-1-thia-3,5,8-triazaacenaphthylene-2-carboxamide]
7.5 | – | C=CC(=O)N1CCC[C@@H](NC(=O)c2sc3nccc4c3c2NC(=O)N4c2ccc(Cc3ccccc3)cc2)C1 [Example 422, (R)—N-(1-Acryloylpiperidin-3-yl)-5-(4-benzylphenyl)-4-oxo-4,5-dihydro-3H-1-thia-3,5,8-triazaacenaphthylene-2-carboxamide]
